Results reported in publication PMC5218480 (PLoS ONE, 2017).

Test system: MV-4-11 cells
Assay: Gene expression microarray analysis (Affymetrix PrimeView) and GSEA
Type: cell-based, human
Set-up: RFU PODN (11730768_x_at) / Fold change /veh PODN (11730768_x_at) / RFU LINC00158 (11744669_a_at) / Fold change /veh LINC00158 (11744669_a_at) / RFU DUSP10 (11751237_a_at) / Fold change /veh DUSP10 (11751237_a_at) / RFU ID3 (11757404_x_at) / Fold change /veh ID3 (11757404_x_at) / RFU PLEKHG5 (11737974_s_at) / Fold change /veh PLEKHG5 (11737974_s_at) / RFU LRRC4B (11730491_at) / Fold change /veh LRRC4B (11730491_at) / RFU GIMAP4 (11747438_a_at) / Fold change /veh GIMAP4 (11747438_a_at) / RFU KRT8 (11758183_x_at) / Fold change /veh KRT8 (11758183_x_at) / RFU CNN1 (11734310_a_at) / Fold change /veh CNN1 (11734310_a_at) / RFU VPS37D (11726825_at) / Fold change /veh VPS37D (11726825_at) / RFU C10orf10 (11716522_x_at) / Fold change /veh C10orf10 (11716522_x_at) / RFU KIR2DL2 /// KIR2DL4 /// KIR2DL5A /// KIR2DL5B /// KIR2DS1 /// KIR2DS2 /// KIR2DS3 /// KIR2DS4 /// KIR3DL3 /// KIR3DL3 /// KIR3DS1 (11738374_at) / Fold change /veh KIR2DL2 /// KIR2DL4 /// KIR2DL5A /// KIR2DL5B /// KIR2DS1 /// KIR2DS2 /// KIR2DS3 /// KIR2DS4 /// KIR3DL3 /// KIR3DL3 /// KIR3DS1 (11738374_at) / RFU C1QL1 (11718748_at) / Fold change /veh C1QL1 (11718748_at) / RFU TMPRSS4 (11747572_a_at) / Fold change /veh TMPRSS4 (11747572_a_at) / RFU HAMP (11756126_x_at) / Fold change /veh HAMP (11756126_x_at) / RFU RNFT2 (11725882_a_at) / Fold change /veh RNFT2 (11725882_a_at) / RFU NR4A2 (11747474_a_at) / Fold change /veh NR4A2 (11747474_a_at) / RFU ABCC12 (11746883_a_at) / Fold change /veh ABCC12 (11746883_a_at) / RFU TMEM136 (11760407_x_at) / Fold change /veh TMEM136 (11760407_x_at) / RFU CLDN22 /// WWC2 (11732394_at) / Fold change /veh CLDN22 /// WWC2 (11732394_at) / RFU HLA-DPB1 (11760878_x_at) / Fold change /veh HLA-DPB1 (11760878_x_at) / RFU SPINT1 (11716480_a_at) / Fold change /veh SPINT1 (11716480_a_at) / RFU GAP43 (11754022_s_at) / Fold change /veh GAP43 (11754022_s_at) / RFU A4GNT (11735810_at) / Fold change /veh A4GNT (11735810_at) / RFU PRB3 (11715151_x_at) / Fold change /veh PRB3 (11715151_x_at) / RFU TUBB4B (11761932_at) / Fold change /veh TUBB4B (11761932_at) / RFU CAPN14 (11732068_a_at) / Fold change /veh CAPN14 (11732068_a_at) / RFU TMCC2 (11721928_a_at) / Fold change /veh TMCC2 (11721928_a_at) / RFU IRGQ (11745062_a_at) / Fold change /veh IRGQ (11745062_a_at) / RFU FAM174B (11720279_a_at) / Fold change /veh FAM174B (11720279_a_at) / RFU TMPRSS4 (11748680_a_at) / Fold change /veh TMPRSS4 (11748680_a_at) / RFU FAM212B (11763350_a_at) / Fold change /veh FAM212B (11763350_a_at) / RFU PLEKHG5 (11743358_a_at) / Fold change /veh PLEKHG5 (11743358_a_at) / RFU ZSCAN30 (11745921_a_at) / Fold change /veh ZSCAN30 (11745921_a_at) / RFU CMKLR1 (11741424_a_at) / Fold change /veh CMKLR1 (11741424_a_at) / RFU LOC101060620 /// MAPK8IP1 (11723275_at) / Fold change /veh LOC101060620 /// MAPK8IP1 (11723275_at) / RFU SPTSSB (11747773_x_at) / Fold change /veh SPTSSB (11747773_x_at) / RFU PRSS12 (11739890_at) / Fold change /veh PRSS12 (11739890_at) / RFU BIN1 (11741810_x_at) / Fold change /veh BIN1 (11741810_x_at) / RFU WNT11 (11732464_a_at) / Fold change /veh WNT11 (11732464_a_at) / RFU C10orf10 (11716521_a_at) / Fold change /veh C10orf10 (11716521_a_at) / RFU C5orf56 (11738089_at) / Fold change /veh C5orf56 (11738089_at) / RFU CYB561 (11721691_x_at) / Fold change /veh CYB561 (11721691_x_at) / RFU ANKRD19P (11752326_a_at) / Fold change /veh ANKRD19P (11752326_a_at) / RFU OR2T12 /// OR2T33 /// OR2T8 (11738714_s_at) / Fold change /veh OR2T12 /// OR2T33 /// OR2T8 (11738714_s_at) / RFU VCAN (11748164_a_at) / Fold change /veh VCAN (11748164_a_at) / RFU JSRP1 (11732532_at) / Fold change /veh JSRP1 (11732532_at) / RFU KRTAP10-11 (11738290_x_at) / Fold change /veh KRTAP10-11 (11738290_x_at) / RFU MYO3A (11730013_a_at) / Fold change /veh MYO3A (11730013_a_at) / RFU EBF3 (11725865_a_at) / Fold change /veh EBF3 (11725865_a_at) / RFU CAMK2N1 (11719241_x_at) / Fold change /veh CAMK2N1 (11719241_x_at) / RFU C5orf56 (11738088_a_at) / Fold change /veh C5orf56 (11738088_a_at) / RFU OLFML3 (11715873_a_at) / Fold change /veh OLFML3 (11715873_a_at) / RFU LOC100653217 /// NTM (11731650_a_at) / Fold change /veh LOC100653217 /// NTM (11731650_a_at) / RFU MAPK11 (11762145_a_at) / Fold change /veh MAPK11 (11762145_a_at) / RFU FIZ1 (11724087_x_at) / Fold change /veh FIZ1 (11724087_x_at) / RFU OASL (11726364_x_at) / Fold change /veh OASL (11726364_x_at) / RFU SOX15 (11748057_x_at) / Fold change /veh SOX15 (11748057_x_at) / RFU CD79A (11719716_a_at) / Fold change /veh CD79A (11719716_a_at) / RFU HIST1H1D (11736915_at) / Fold change /veh HIST1H1D (11736915_at) / RFU CASKIN2 (11723855_a_at) / Fold change /veh CASKIN2 (11723855_a_at) / RFU LOC730098 (11760151_x_at) / Fold change /veh LOC730098 (11760151_x_at) / RFU OR4N2 (11742367_at) / Fold change /veh OR4N2 (11742367_at) / RFU PRRT2 (11749266_a_at) / Fold change /veh PRRT2 (11749266_a_at) / RFU SNX32 (11753110_a_at) / Fold change /veh SNX32 (11753110_a_at) / RFU CDHR5 (11726645_a_at) / Fold change /veh CDHR5 (11726645_a_at) / RFU RCAN1 (11760418_a_at) / Fold change /veh RCAN1 (11760418_a_at) / RFU FAM167A (11723789_a_at) / Fold change /veh FAM167A (11723789_a_at) / RFU FAM26E (11764081_at) / Fold change /veh FAM26E (11764081_at) / RFU ISYNA1 (11749810_s_at) / Fold change /veh ISYNA1 (11749810_s_at) / RFU ACY1 (11761880_at) / Fold change /veh ACY1 (11761880_at) / RFU 11764098_at / Fold change /veh 11764098_at / RFU SAMD14 (11745864_x_at) / Fold change /veh SAMD14 (11745864_x_at) / RFU NPB (11741838_a_at) / Fold change /veh NPB (11741838_a_at) / RFU TMPRSS6 (11731388_a_at) / Fold change /veh TMPRSS6 (11731388_a_at) / RFU KRTAP10-2 (11738614_at) / Fold change /veh KRTAP10-2 (11738614_at) / RFU ARHGAP8 /// PRR5-ARHGAP8 (11727945_x_at) / Fold change /veh ARHGAP8 /// PRR5-ARHGAP8 (11727945_x_at) / RFU KRTAP5-7 /// NADSYN1 (11734609_at) / Fold change /veh KRTAP5-7 /// NADSYN1 (11734609_at) / RFU RASL12 (11751679_a_at) / Fold change /veh RASL12 (11751679_a_at) / RFU CDKN2B (11736163_a_at) / Fold change /veh CDKN2B (11736163_a_at) / RFU PRF1 (11729649_at) / Fold change /veh PRF1 (11729649_at) / RFU, ZNF638 /// ZNF638-IT1 / Fold change vs veh, ZNF638 /// ZNF638-IT1 / RFU, PANK3 / Fold change vs veh, PANK3 / RFU, SH3YL1 / Fold change vs veh, SH3YL1 / RFU, ZEB2 / Fold change vs veh, ZEB2 / RFU, NRIP1 / Fold change vs veh, NRIP1 / RFU, PTTG1IP / Fold change vs veh, PTTG1IP / RFU, CAPN2 / Fold change vs veh, CAPN2 / RFU, MED14 / Fold change vs veh, MED14 / RFU, SNORA58 / Fold change vs veh, SNORA58 / RFU, C1orf63 / Fold change vs veh, C1orf63 / RFU, LRRFIP1 / Fold change vs veh, LRRFIP1 / RFU, NDUFAF7 / Fold change vs veh, NDUFAF7 / RFU, SLC12A2 / Fold change vs veh, SLC12A2 / RFU, IBTK / Fold change vs veh, IBTK / RFU, ESF1 / Fold change vs veh, ESF1 / Fold change vs veh, TMEM50B / RFU, TAOK1 / Fold change vs veh, TAOK1 / RFU, ACBD3 / Fold change vs veh, ACBD3 / RFU, TMA16 / Fold change vs veh, TMA16 / RFU, RWDD3 / Fold change vs veh, RWDD3 / RFU, BCAT1 / Fold change vs veh, BCAT1 / RFU, EDEM3 / Fold change vs veh, EDEM3 / RFU, TMEM33 / Fold change vs veh, TMEM33 / RFU, WDR75 / Fold change vs veh, WDR75 / RFU, AHCTF1 / Fold change vs veh, AHCTF1 / RFU, TFRC / Fold change vs veh, TFRC / RFU, ZDHHC17 / Fold change vs veh, ZDHHC17 / RFU, NOM1 / Fold change vs veh, NOM1 / RFU, ARL8B / Fold change vs veh, ARL8B / RFU, ZBTB11 / Fold change vs veh, ZBTB11 / RFU, TAMM41 / Fold change vs veh, TAMM41 / RFU, KIAA1704 /// LOC100996395 / Fold change vs veh, KIAA1704 /// LOC100996395 / RFU, ING1 / Fold change vs veh, ING1 / RFU, TRMT61B / Fold change vs veh, TRMT61B / RFU, FUBP3 / Fold change vs veh, FUBP3 / RFU, TP53 / Fold change vs veh, TP53 / RFU, TNKS2 / Fold change vs veh, TNKS2 / RFU, ZFP14 / Fold change vs veh, ZFP14 / RFU, ACTR2 / Fold change vs veh, ACTR2 / RFU, PPP3R1 / Fold change vs veh, PPP3R1 / RFU, PIK3R1 / Fold change vs veh, PIK3R1 / RFU, HNRNPA1 / Fold change vs veh, HNRNPA1 / RFU, RNF170 / Fold change vs veh, RNF170 / RFU, ZNF28 / Fold change vs veh, ZNF28 / RFU, RNGTT / Fold change vs veh, RNGTT / RFU, OGT / Fold change vs veh, OGT / RFU, BRD1 / Fold change vs veh, BRD1 / RFU, MARS / Fold change vs veh, MARS / RFU, ZNF655 / Fold change vs veh, ZNF655 / RFU, FAHD1 / Fold change vs veh, FAHD1 / RFU, BDP1 / Fold change vs veh, BDP1 / RFU, LRRCC1 / Fold change vs veh, LRRCC1 / RFU, ARID1A / Fold change vs veh, ARID1A / RFU, ZNF146 / Fold change vs veh, ZNF146 / RFU, ZNF330 / Fold change vs veh, ZNF330 / RFU, GPN3 / Fold change vs veh, GPN3 / RFU, C9orf123 / Fold change vs veh, C9orf123 / RFU, N4BP2L2 / Fold change vs veh, N4BP2L2 / RFU, ARFIP1 / Fold change vs veh, ARFIP1 / RFU, FAM179B / Fold change vs veh, FAM179B / RFU, BCL10 / Fold change vs veh, BCL10 / RFU, UHRF1BP1L / Fold change vs veh, UHRF1BP1L / RFU, BET1 / Fold change vs veh, BET1 / RFU, CNOT2 / Fold change vs veh, CNOT2 / RFU, ZNF268 / Fold change vs veh, ZNF268 / Fold change vs veh, ZNF507 / RFU, DGCR2 / Fold change vs veh, DGCR2 / RFU, WDSUB1 / Fold change vs veh, WDSUB1 / Fold change vs veh, HSP90B1 /// MIR3652 / RFU, ADSS / Fold change vs veh, ADSS / RFU, GK / Fold change vs veh, GK / RFU, ZNF148 / Fold change vs veh, ZNF148 / RFU, TAF9 / Fold change vs veh, TAF9 / RFU, SLC1A5 / Fold change vs veh, SLC1A5 / RFU, SLMO2 / Fold change vs veh, SLMO2 / RFU, ABCC4 / Fold change vs veh, ABCC4 / RFU, LOC101060439 /// RAP1B / Fold change vs veh, LOC101060439 /// RAP1B / RFU, RFX7 / Fold change vs veh, RFX7 / RFU, GTPBP10 / Fold change vs veh, GTPBP10 / RFU, CNEP1R1 / Fold change vs veh, CNEP1R1 / RFU, BIVM-ERCC5 /// ERCC5 / Fold change vs veh, BIVM-ERCC5 /// ERCC5 / RFU, ILF3 / Fold change vs veh, ILF3 / RFU 11762660_at / Fold change /veh 11762660_at / RFU VCAN (11757783_s_at) / Fold change /veh VCAN (11757783_s_at) / RFU DDX43 (11728927_at) / Fold change /veh DDX43 (11728927_at) / RFU KRT8 (11758188_x_at) / Fold change /veh KRT8 (11758188_x_at) / RFU NKD1 (11759106_at) / Fold change /veh NKD1 (11759106_at) / RFU SRD5A1 (11742802_a_at) / Fold change /veh SRD5A1 (11742802_a_at) / RFU TPSAB1 /// TPSB2 (11721975_s_at) / Fold change /veh TPSAB1 /// TPSB2 (11721975_s_at) / RFU GSTM3 (11746129_a_at) / Fold change /veh GSTM3 (11746129_a_at) / RFU IL23R (11737362_x_at) / Fold change /veh IL23R (11737362_x_at) / RFU TMEM51 (11727254_a_at) / Fold change /veh TMEM51 (11727254_a_at) / RFU PIWIL2 (11732686_x_at) / Fold change /veh PIWIL2 (11732686_x_at) / RFU ORM1 (11744905_x_at) / Fold change /veh ORM1 (11744905_x_at) / RFU CCDC152 (11743942_at) / Fold change /veh CCDC152 (11743942_at) / RFU ECM1 (11717891_a_at) / Fold change /veh ECM1 (11717891_a_at) / RFU IL23R (11748794_a_at) / Fold change /veh IL23R (11748794_a_at) / RFU TNFAIP8L3 (11732012_x_at) / Fold change /veh TNFAIP8L3 (11732012_x_at) / RFU MBOAT4 (11741988_at) / Fold change /veh MBOAT4 (11741988_at) / RFU 11764193_at / Fold change /veh 11764193_at / RFU TMEM53 (11763286_at) / Fold change /veh TMEM53 (11763286_at) / RFU MAGEB2 (11727129_at) / Fold change /veh MAGEB2 (11727129_at) / RFU TMEM200A (11744735_a_at) / Fold change /veh TMEM200A (11744735_a_at) / RFU CCDC152 (11751479_a_at) / Fold change /veh CCDC152 (11751479_a_at) / RFU FAM211A (11726209_a_at) / Fold change /veh FAM211A (11726209_a_at) / RFU RGS16 (11746705_a_at) / Fold change /veh RGS16 (11746705_a_at) / RFU VCAN (11755009_s_at) / Fold change /veh VCAN (11755009_s_at) / RFU RHOB (11743442_s_at) / Fold change /veh RHOB (11743442_s_at) / RFU RGS16 (11720943_a_at) / Fold change /veh RGS16 (11720943_a_at) / RFU RGS16 (11720944_at) / Fold change /veh RGS16 (11720944_at) / RFU, VPS4B / Fold change vs veh, VPS4B / RFU, CREB1 / Fold change vs veh, CREB1 / RFU, DNAJC13 / Fold change vs veh, DNAJC13 / RFU, GNAQ / Fold change vs veh, GNAQ / RFU, CDK5R1 / Fold change vs veh, CDK5R1 / RFU, ZRANB3 / Fold change vs veh, ZRANB3 / RFU, CUL4A / Fold change vs veh, CUL4A / RFU, CCNY / Fold change vs veh, CCNY / RFU, UFL1 / Fold change vs veh, UFL1 / RFU, COG3 / Fold change vs veh, COG3 / RFU, DIAPH2 / Fold change vs veh, DIAPH2 / RFU, SKA2 / Fold change vs veh, SKA2 / RFU, AFF3 / Fold change vs veh, AFF3 / RFU, LMF1 / Fold change vs veh, LMF1 / RFU, IPO11 / Fold change vs veh, IPO11 / RFU, DFFB / Fold change vs veh, DFFB / RFU, FOXP1 / Fold change vs veh, FOXP1 / RFU, CARD8 / Fold change vs veh, CARD8 / RFU, STRN3 / Fold change vs veh, STRN3 / RFU, ADK / Fold change vs veh, ADK / RFU, RASSF2 / Fold change vs veh, RASSF2 / RFU, WIPF1 / Fold change vs veh, WIPF1 / RFU, LARP1B / Fold change vs veh, LARP1B / RFU, RASA1 / Fold change vs veh, RASA1 / RFU, RB1 / Fold change vs veh, RB1 / RFU, PPFIA1 / Fold change vs veh, PPFIA1 / RFU, MAT2A / Fold change vs veh, MAT2A / RFU, CCT5 / Fold change vs veh, CCT5 / RFU, WDR92 / Fold change vs veh, WDR92 / RFU, CUX1 / Fold change vs veh, CUX1 / RFU, TTC7A / Fold change vs veh, TTC7A / RFU, TMEM135 / Fold change vs veh, TMEM135 / RFU, DEPTOR / Fold change vs veh, DEPTOR / RFU, CPM / Fold change vs veh, CPM / RFU, DNAJB6 / Fold change vs veh, DNAJB6 / RFU, CACNA2D3 / Fold change vs veh, CACNA2D3 / RFU, DTX4 / Fold change vs veh, DTX4 / RFU, TFCP2 / Fold change vs veh, TFCP2 / RFU, GMCL1 /// GMCL1P1 / Fold change vs veh, GMCL1 /// GMCL1P1 / RFU, AEBP2 / Fold change vs veh, AEBP2 / RFU, SNHG1 /// SNORD22 /// SNORD25 /// SNORD26 /// SNORD27 /// SNORD28 /// SNORD29 /// SNORD31 / Fold change vs veh, SNHG1 /// SNORD22 /// SNORD25 /// SNORD26 /// SNORD27 /// SNORD28 /// SNORD29 /// SNORD31 / Fold change (Aza/veh), C12orf56 (ProbeSet 11735607_a_at) / Fold change (ACY-1035/veh), C12orf56 (ProbeSet 11735607_a_at) / Fold change (Aza/veh), FGFR1OP (ProbeSet 11751329_s_at) / Fold change (ACY-1035/veh), FGFR1OP (ProbeSet 11751329_s_at) / Fold change (Aza/veh), VPS36 (ProbeSet 11739960_a_at) / Fold change (ACY-1035/veh), VPS36 (ProbeSet 11739960_a_at) / RFU SYPL1 (11715823_x_at) / Fold change /veh SYPL1 (11715823_x_at) / RFU IGFBP7 (11715501_s_at) / Fold change /veh IGFBP7 (11715501_s_at) / RFU REEP3 (11722064_at) / Fold change /veh REEP3 (11722064_at) / RFU IGLL1 (11728026_x_at) / Fold change /veh IGLL1 (11728026_x_at): dose or concentration left out as unconfirmed
Conditions: MV-4-11 cells, 48 hours

For `Nc1ccc(-c2cccs2)cc1NC(=O)c1ccc2c(c1)cc(C1CC1)n2CCN1CCOCC1` [ACY-1035], the “RFU TMPRSS4 (11748680_a_at)” value was 52.95 RFU.
